Source: EP2258713A1, “Antiviral Triterpene Derivatives” (priority 2009, dated 2010)
Like-named read-outs stand apart in the source and are kept apart here.

Columns and labels:
MDCK cells [1] = test: Cytotoxicity determination: cell viability of uninfected cells, CellTiter-Glo luminescent cell viability assay; settings: 48 h; for Viability %: MDCK cells
[2] = test system: murine retinal ganglion cells; settings: cited from earlier work
MDCK cells [3] = settings: dog, 48 h
CK-2 = settings: 30 µM; cited from earlier work
TNFα = test: Expression of TNFα in cells (general statement, no data shown); type: cell-based; settings: no values
Excerpt: A person skilled in the art would be able to identify TNFα-downregulating compounds of the invention by contacting one or more cells with a compound of the invention and assaying for the presence of one TNFα and comparing the levels of TNFα in the one or more cells with that of controls. Such methods are known in the art and are described in the examples herein below.

H3N2 Influenza A Virus = type: cell-based
PKC and CK-I = settings: 100 µM; cited from earlier work

## COC(=O)CCC(=O)N(CCS[C@@H]1O[C@H](C(=O)OC)[C@@H](O)[C@H](O)[C@H]1O)[C@H]1CC[C@]2(C)[C@H]3C(=O)C=C4[C@@H]5C[C@@](C)(C(=O)O)CC[C@]5(C)CC[C@@]4(C)[C@]3(C)CC[C@H]2C1(C)C [Compound 6, (3S,18R,20S)-3-{N-(4-Methoxy-1,4-dioxobutyl)-N-[2-S-(methyl-1-thio-beta-D-glucopyranosyluronate)-ethyl]-amino}-11-oxo-olean-12-en-29-oic acid]
MDCK cells [1]; 25 µM
  Viability %: 107.3%
MDCK cells [1]; 250 µM
  Viability %: 106.3%

## CC1(C)[C@@H](O)CC[C@]2(C)[C@H]3C(=O)C=C4[C@@H]5C[C@@](C)(C(=O)O)CC[C@]5(C)CC[C@@]4(C)[C@]3(C)CC[C@@H]12 [Glycyrrhetinic acid]
[2]
  postsynaptic light response: 30 % of control
MDCK cells [3]; 25 µM
  Viability %: 0.2%
MDCK cells [3]; 250 µM
  Viability %: 0.0%
CK-2
  phosphorylation of C3α by CK-2: completely inhibited

## COC(=O)[C@H]1O[C@@H](SCCN(C(C)=O)[C@H]2CC[C@]3(C)[C@H]4C(=O)C=C5[C@@H]6C[C@@](C)(C(=O)O)CC[C@]6(C)CC[C@@]5(C)[C@]4(C)CC[C@H]3C2(C)C)[C@H](O)[C@@H](O)[C@@H]1O [Compound 4, (3S,18R,20S)-3-{N-Acetyl-N-[2-S-(methyl-1-thio-beta-D-glucopyranosyluronate)-ethyl]-amino}-11-oxo-olean-12-en-29-oic acid]
MDCK cells [1]; 25 µM
  Viability %: 104.4%
MDCK cells [1]; 250 µM
  Viability %: 99.4%

## CON(C1OC(CO)C(O)C(O)C1O)C1CCC2(C)C(CCC3(C)C2C(=O)C=C2C4CC(C)(C(=O)O)CCC4(C)CCC23C)C1(C)C [Compound 1, (3S,18R,20S)-11-Oxo-3-[(beta-D-glucopyranosyl)methoxamino]-olean-12-en-29-oic acid]
TNFα
  expression of TNFα: inhibit the expression of TNFα
H3N2 Influenza A Virus; general statement, no values
  cytopathic effect associated with virus replication in cell culture: reduce the cytopathic effect

## CC1(C)[C@@H](O[C@H]2O[C@H](C(=O)O)[C@@H](O)[C@H](O)[C@H]2O[C@@H]2O[C@H](C(=O)O)[C@@H](O)[C@H](O)[C@H]2O)CC[C@]2(C)[C@H]3C(=O)C=C4[C@@H]5C[C@@](C)(C(=O)O)CC[C@]5(C)CC[C@@]4(C)[C@]3(C)CC[C@@H]12 [Glycyrrhizin, glycyrrhizin, reference compound]
PKC and CK-I
  phosphorylation of HMGB1/2 by PKC and CK-I: completely inhibits
MDCK cells [1]; 25 µM
  Viability %: 100.9%
MDCK cells [1]; 250 µM
  Viability %: 105.3%
MDCK cells [1]; 1500 µM
  Viability %: 101.7%
MDCK cells [1]; 1.5 mM, uninfected MDCK cells
  cell viability of uninfected treated cells versus uninfected untreated cells: not significantly different
H3N2 Influenza A Virus
  reduction of the CPE (cytopathic effect): 57%

## COC(=O)[C@H]1O[C@@H](SCCN[C@H]2CC[C@]3(C)[C@H]4C(=O)C=C5[C@@H]6C[C@@](C)(C(=O)O)CC[C@]6(C)CC[C@@]5(C)[C@]4(C)CC[C@H]3C2(C)C)[C@H](O)[C@@H](O)[C@@H]1O [Compound 2, (3S,18R,20S)-3-[2-S-(Methyl-1-thio-beta-D-glucopyranosyluronate)-ethyl-amino]-11-oxo-olean-12-en-29-oic acid]
MDCK cells [1]; 25 µM
  Viability %: 114.6%
MDCK cells [1]; 250 µM
  Viability %: 101.2%

## CC(=O)N(CCS[C@@H]1O[C@H](C(=O)O)[C@@H](O)[C@H](O)[C@H]1O)[C@H]1CC[C@]2(C)[C@H]3C(=O)C=C4[C@@H]5C[C@@](C)(C(=O)O)CC[C@]5(C)CC[C@@]4(C)[C@]3(C)CC[C@H]2C1(C)C [Compound 5, (3S,18R,20S)-3-{N-Acetyl-N-[2-(beta-D-glucopyranuronosylthio)-ethyl]-amino}-11-oxo-olean-12-en-29-oic acid]
MDCK cells [1]; 25 µM
  Viability %: 106.6%
MDCK cells [1]; 250 µM
  Viability %: 93.5%

## CC1(C)[C@@H](NCCS[C@@H]2O[C@H](C(=O)O)[C@@H](O)[C@H](O)[C@H]2O)CC[C@]2(C)[C@H]3C(=O)C=C4[C@@H]5C[C@@](C)(C(=O)O)CC[C@]5(C)CC[C@@]4(C)[C@]3(C)CC[C@@H]12 [Compound 3, (3S,18R,20S)-3-[2-(β-D-glucopyranuronosylthio)-ethyl-amino]-11-oxo-olean-12-en-29-oic acid]
MDCK cells [1]; 25 µM
  Viability %: 103.5%
MDCK cells [1]; 250 µM
  Viability %: 105.5%
